Reference: US20090163525A1, “SUBSTITUTED QUINAZOLINES WITH ANTI-CANCER ACTIVITY” (ASTRAZENECA AB, priority 2006, published 2009)

Each compound was assayed against Mutant B-Raf (V600E) enzyme (MT B-Raf) (Homo sapiens, UniProt P15056, V600E) (assay: B-Raf in vitro AlphaScreen assay). Conditions: phosphorylation of biotinylated HIS-MEK-AVI, 24 μM ATP in mix.
Mutant B-Raf (V600E) enzyme (MT B-Raf), sequence (P15056 whole entry V600E): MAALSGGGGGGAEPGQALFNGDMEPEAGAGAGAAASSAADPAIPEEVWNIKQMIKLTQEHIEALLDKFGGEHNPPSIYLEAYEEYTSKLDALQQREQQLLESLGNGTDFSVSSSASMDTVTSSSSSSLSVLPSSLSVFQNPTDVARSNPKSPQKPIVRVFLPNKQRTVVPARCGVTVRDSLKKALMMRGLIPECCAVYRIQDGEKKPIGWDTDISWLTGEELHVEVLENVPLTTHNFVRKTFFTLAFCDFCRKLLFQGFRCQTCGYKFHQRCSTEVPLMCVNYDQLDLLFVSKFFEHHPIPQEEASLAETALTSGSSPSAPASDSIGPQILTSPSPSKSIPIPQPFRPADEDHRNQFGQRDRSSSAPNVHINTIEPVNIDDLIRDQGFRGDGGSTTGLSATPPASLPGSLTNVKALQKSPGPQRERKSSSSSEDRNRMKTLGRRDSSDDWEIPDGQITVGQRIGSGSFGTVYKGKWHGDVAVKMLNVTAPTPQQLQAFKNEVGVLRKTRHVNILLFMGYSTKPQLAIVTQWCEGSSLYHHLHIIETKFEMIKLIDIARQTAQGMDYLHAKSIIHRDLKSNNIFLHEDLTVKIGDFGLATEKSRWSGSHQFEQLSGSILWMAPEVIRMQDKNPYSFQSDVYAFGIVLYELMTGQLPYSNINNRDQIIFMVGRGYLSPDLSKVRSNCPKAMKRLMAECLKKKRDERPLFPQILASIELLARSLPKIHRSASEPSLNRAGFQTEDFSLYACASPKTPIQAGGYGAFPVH
Format: biochemical
Experimental: B-Raf In-vitro AlphaScreen Assay
MT B-Raf was expressed in insect cells and affinity purified by Ni^+2 agarose followed by Q-Sepharose chromatography. Typical yield was 1.08 mg/ml at >90% purity.
The phosphorylation of the MT B-Raf substrate in the presence and absence of the compound of interest was determined. Briefly, 5 μl of enzyme/substrate/adenosine triphosphate (ATP) mix consisting of 0.12 nM MT B-Raf, 84 nM biotinylated HIS-MEK-AVI, and 24 μM ATP in 1.2× buffer was preincubated with 2 μl of compound for 20 minutes at 25° C. Reactions were initiated with 5 μl of Metal mix consisting of 24 mM MgCl2 in 1.2× buffer and incubated at 25° C. for 60 minutes and reactions were stopped by addition of 5 μl of Detection mix consisting of 20 mM HEPES, 102 mM ethylenediamine tetraacetic acid, 1.65 mg/ml BSA, 136 mM NaCl, 3.4 nM Phospho-MEK1/2 (Ser217/221) antibody (Catalog #9121, Cell Signaling Technology, Mass.), 40 μg/ml Streptavidin donor beads (Perkin Elmer, Mass., Catalog #6760002), and 40 μg/ml Protein A acceptor beads (Perkin Elmer, Mass., Catalog #6760137). Plates were incubated at 25° C. for 18 hours in the dark. Phosphorylated substrate was detected by an EnVision plate reader (Perkin Elmer, Mass.) 680 nm excitation, 520-620 nm emission. Data was graphed and IC50s calculated using Excel Fit (Microsoft).
`Cc1ccc(NC(=O)Nc2cccc(C(F)(F)F)c2)cc1Nc1ccc2ncn(C)c(=O)c2c1` [Example 1, N-{4-Methyl-3-[(3-methyl-4-oxo-3,4-dihydroquinazolin-6-yl)amino]phenyl}-N-′[3-(trifluoromethyl)phenyl]urea] showed an IC50 of 14.3 nM. Compound `Cc1ccc(NC(=O)Nc2ccc(Cl)c(Cl)c2)cc1Nc1ccc2ncn(C)c(=O)c2c1` [Example 2, N-(3,4-Dichlorophenyl)-N′-{4-methyl-3-[(3-methyl-4-oxo-3,4-dihydroquinazolin-6-yl)amino]phenyl}urea] has an IC50 of 363 nM. `Cc1ccc(NC(=O)Nc2cccc(C(C)(C)C#N)c2)cc1Nc1ccc2ncn(C)c(=O)c2c1` [Example 6, N-[3-(1-Cyano-1-methylethyl)phenyl]-N′-{4-methyl-3-[(3-methyl-4-oxo-3,4-dihydroquinazolin-6-yl)amino]phenyl}urea] gave an IC50 of 99 nM.
